Results published in PubChem BioAssay AID192 (DTP/NCI, 2004).
Where “and” joins values, the source holds several entries; their conditions need not be identical. Equal values may be shown once. Toxic doses and inconclusive results are not listed.

System: BDF1 mice, B16 melanoma ip, median survival T/C
Assay: NCI In Vivo Anticancer Drug Screen. Data for tumor model B16 Melanoma (intraperitoneal) in B6D2F1 (BDF1) mice
Details: endpoint: median survival time, higher = longer survival
Summary of the method: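 Survival or tumor size is measured after treatment of tumor-bearing mice and normalised to the vehicle-treated control group.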

[1] = dose: 50.0 mg/kg/injection, schedule: Q01DX009 (ip), vehicle: Klucel (hydroxypropylcellulose) (HPC)
[2] = dose: 100.0 mg/kg/injection, schedule: Q01DX009 (ip), vehicle: Klucel (hydroxypropylcellulose) (HPC)
[3] = dose: 200.0 mg/kg/injection, schedule: Q01DX009 (ip), vehicle: Klucel (hydroxypropylcellulose) (HPC)
[4] = dose: 12.5 mg/kg/injection, schedule: Q01DX009 (ip), vehicle: saline with Tween-80
[5] = dose: 25.0 mg/kg/injection, schedule: Q01DX009 (ip), vehicle: saline with Tween-80
[6] = dose: 3.12 mg/kg/injection, schedule: Q01DX009 (ip), vehicle: saline
[7] = dose: 6.25 mg/kg/injection, schedule: Q01DX009 (ip), vehicle: saline
[8] = dose: 12.5 mg/kg/injection, schedule: Q01DX009 (ip), vehicle: saline
[9] = dose: 25.0 mg/kg/injection, schedule: Q01DX009 (ip), vehicle: saline
[10] = dose: 50.0 mg/kg/injection, schedule: Q01DX009 (ip), vehicle: saline
[11] = dose: 400.0 mg/kg/injection, schedule: Q01DX009 (ip), vehicle: Klucel (hydroxypropylcellulose) (HPC)

O=CNC(CSC(=O)c1ccccc1)C(=O)O (stereo not given)
T/C [1]: 100 % of control
T/C [2]: 100 % of control
T/C [3]: 94 % of control

CCCCCCCCCCCCCC(=O)CCC
T/C (dose: 25.0 mg/kg/injection, schedule: Q01DX009 (ip), vehicle: Klucel (hydroxypropylcellulose) (HPC)): 105 % of control
T/C [1]: 101 % of control
T/C (dose: 100.0 mg/kg/injection, schedule: Q01DX009 (ip), vehicle: other): 88 % of control

Cn1cnc([N+](=O)[O-])c1Sc1nc(N)nc2c1ncn2C1OC(CO)C(O)C1O (stereo not given)
T/C (dose: 12.5 mg/kg/injection, schedule: Q01DX009 (ip), vehicle: suspension in saline): 91 % of control

CCN(CC)Cc1cc2[nH]c3c4ccc(Cl)cc4ncc3c2cc1OC
T/C (dose: 6.25 mg/kg/injection, schedule: Q01DX009 (ip), vehicle: saline with Tween-80): 95 % of control
T/C [4]: 98 % of control
T/C [5]: 98 % of control

CC(C(=O)N1c2ccccc2Sc2ccccc21)[N+]1(C)CCCC1 (stereo not given)
T/C [6]: 93 % of control
T/C [7]: 93 % of control
T/C [8]: 95 % of control
T/C [9]: 91 % of control
T/C [10]: 100 % of control

O=C(O)c1cc(-c2ccc(Cl)cc2)nc2c(Cl)cccc12
T/C [2]: 100 % of control

Clc1ccc(C=Nc2ccc3c(c2)Cc2ccccc2-3)cc1
T/C [2]: 93 % of control
T/C [3]: 93 % of control
T/C [11]: 96 % of control

NC1(c2ccccc2)CCCCC1
T/C [6]: 86 % of control
T/C [7]: 100 % of control
T/C [8]: 102 % of control
T/C [9]: 100 % of control
T/C [10]: 100 % of control

CN1CCN=C(c2ccccc2)c2cc(Cl)ccc21
T/C [7]: 117 % of control
T/C [8]: 117 % of control
T/C [9]: 115 % of control
T/C [10]: 106 % of control
T/C (dose: 100.0 mg/kg/injection, schedule: Q01DX009 (ip), vehicle: saline): 100 % of control

NC(=O)c1csc(C2OC(CO)C(O)C2O)n1 (stereo not given)
T/C (dose: 25.0 mg/kg/injection, schedule: Q01DX009 (ip), vehicle: water): 103 % of control
T/C (dose: 50.0 mg/kg/injection, schedule: Q01DX009 (ip), vehicle: water): 99 % of control
T/C (dose: 100.0 mg/kg/injection, schedule: Q01DX009 (ip), vehicle: water): 104 % of control
T/C (dose: 200.0 mg/kg/injection, schedule: Q01DX009 (ip), vehicle: water): 111 % of control
T/C (dose: 400.0 mg/kg/injection, schedule: Q01DX009 (ip), vehicle: water): 110 % of control
T/C (dose: 800.0 mg/kg/injection, schedule: Q01DX009 (ip), vehicle: water): 99 % of control

O=C(COc1ccc(Cl)cc1)Nc1cc(C(F)(F)F)ccc1Cl
T/C [5]: 103 % of control
T/C (dose: 50.0 mg/kg/injection, schedule: Q01DX009 (ip), vehicle: saline with Tween-80): 96 % of control
T/C (dose: 100.0 mg/kg/injection, schedule: Q01DX009 (ip), vehicle: saline with Tween-80): 105 % of control

Nc1ncnc2c1cnn2C1OC(CO)C(O)C1O (stereo not given)
T/C [4]: 113 % of control
T/C [5]: 109 % of control

CCOC(=O)NO
T/C (dose: 75.0 mg/kg/injection, schedule: Q01DX009 (ip), vehicle: saline): 100 % of control
T/C (dose: 150.0 mg/kg/injection, schedule: Q01DX009 (ip), vehicle: saline): 105 % of control
T/C (dose: 300.0 mg/kg/injection, schedule: Q01DX009 (ip), vehicle: saline): 103 % of control

O=C(CCN1CC1)OC1CCCC1
T/C (dose: 0.75 mg/kg/injection, schedule: Q01DX009 (ip), vehicle: Klucel (hydroxypropylcellulose) (HPC)): 111 % of control
T/C (dose: 1.5 mg/kg/injection, schedule: Q01DX009 (ip), vehicle: Klucel (hydroxypropylcellulose) (HPC)): 105 % of control
T/C (dose: 3.0 mg/kg/injection, schedule: Q01DX009 (ip), vehicle: Klucel (hydroxypropylcellulose) (HPC)): 108 % of control

CC1CCC(NC(=O)N(CCCl)N=O)CC1 (stereo not given)
T/C (dose: 0.5 mg/kg/injection, schedule: Q01DX009 (ip), vehicle: other): 104 % of control
T/C (dose: 0.5 mg/kg/injection, schedule: Q01DX009 (ip), vehicle: saline + alcohol): 95 % of control
T/C (dose: 1.0 mg/kg/injection, schedule: Q01DX009 (ip), vehicle: other): 112 % of control
T/C (dose: 1.0 mg/kg/injection, schedule: Q01DX009 (ip), vehicle: saline + alcohol): 113 % of control
T/C (dose: 1.9 mg/kg/injection, schedule: Q01DX001 (ip), vehicle: saline): 106 % of control
T/C (dose: 2.0 mg/kg/injection, schedule: Q01DX009 (ip), vehicle: distilled water + Tween-80 + alcohol): 103 % of control
T/C (dose: 2.0 mg/kg/injection, schedule: Q01DX009 (ip), vehicle: other): 111 % of control
T/C (dose: 2.0 mg/kg/injection, schedule: Q01DX009 (ip), vehicle: saline + alcohol): 118 % of control
T/C (dose: 2.5 mg/kg/injection, schedule: Q04DX003 (ip), vehicle: other): 109 % of control
T/C (dose: 3.75 mg/kg/injection, schedule: Q01DX001 (ip), vehicle: saline): 117 % of control
T/C (dose: 3.75 mg/kg/injection, schedule: Q04DX003 (ip), vehicle: other): 112 % of control and 123 % of control
T/C (dose: 4.0 mg/kg/injection, schedule: Q01DX009 (ip), vehicle: distilled water + Tween-80 + alcohol): 108 % of control
T/C (dose: 4.0 mg/kg/injection, schedule: Q01DX009 (ip), vehicle: saline + alcohol): 150 % of control
T/C (dose: 5.0 mg/kg/injection, schedule: Q04DX003 (ip), vehicle: other): 124 % of control
T/C (dose: 7.5 mg/kg/injection, schedule: Q04DX003 (ip), vehicle: other): 212 % of control
T/C (dose: 8.0 mg/kg/injection, schedule: Q01DX009 (ip), vehicle: distilled water + Tween-80 + alcohol): 184 % of control
T/C (dose: 8.0 mg/kg/injection, schedule: Q01DX009 (ip), vehicle: other): 200 % of control
T/C (dose: 8.0 mg/kg/injection, schedule: Q01DX009 (ip), vehicle: saline + alcohol): 72 % of control
T/C (dose: 9.0 mg/kg/injection, schedule: Q04DX002 (ip), vehicle: Klucel (hydroxypropylcellulose) (HPC)): 121 % of control
T/C (dose: 10.0 mg/kg/injection, schedule: Q04DX003 (ip), vehicle: other): 189 % of control
T/C (dose: 15.0 mg/kg/injection, schedule: Q04DX002 (ip), vehicle: Klucel (hydroxypropylcellulose) (HPC)): 150 % of control
T/C (dose: 15.0 mg/kg/injection, schedule: Q04DX003 (ip), vehicle: other): 94 % of control and 272 % of control
T/C (dose: 16.0 mg/kg/injection, schedule: Q01DX009 (ip), vehicle: distilled water + Tween-80 + alcohol): 51 % of control
T/C (dose: 16.0 mg/kg/injection, schedule: Q01DX009 (ip), vehicle: other): 50 % of control
T/C (dose: 16.0 mg/kg/injection, schedule: Q01DX009 (ip), vehicle: saline + alcohol): 45 % of control
T/C (dose: 20.0 mg/kg/injection, schedule: Q04DX003 (ip), vehicle: other): 263 % of control
T/C (dose: 24.0 mg/kg/injection, schedule: Q01DX001 (ip), vehicle: distilled water + Tween-80 + alcohol): 161 % of control
T/C (dose: 25.0 mg/kg/injection, schedule: Q04DX002 (ip), vehicle: Klucel (hydroxypropylcellulose) (HPC)): 196 % of control
T/C (dose: 30.0 mg/kg/injection, schedule: Q04DX003 (ip), vehicle: other): 50 % of control and 55 % of control
T/C (dose: 32.0 mg/kg/injection, schedule: Q01DX009 (ip), vehicle: other): 37 % of control
T/C (dose: 32.0 mg/kg/injection, schedule: Q01DX009 (ip), vehicle: saline + alcohol): 31 % of control
T/C (dose: 40.0 mg/kg/injection, schedule: Q01DX001 (ip), vehicle: distilled water + Tween-80 + alcohol): 182 % of control
T/C (dose: 42.0 mg/kg/injection, schedule: Q04DX002 (ip), vehicle: Klucel (hydroxypropylcellulose) (HPC)): 213 % of control
T/C (dose: 64.0 mg/kg/injection, schedule: Q01DX009 (ip), vehicle: other): 27 % of control
T/C (dose: 64.0 mg/kg/injection, schedule: Q01DX009 (ip), vehicle: saline + alcohol): 26 % of control
T/C (dose: 66.7 mg/kg/injection, schedule: Q01DX001 (ip), vehicle: distilled water + Tween-80 + alcohol): 63 % of control

CCC(c1ccc(OC)cc1)C(CC)c1ccc(O)c(CN2CCN(C)CC2)c1 (stereo not given)
T/C [9]: 93 % of control
T/C [10]: 97 % of control

O=CNC(Cc1ccccc1)Cc1ccccc1
T/C (dose: 5.0 mg/kg/injection, schedule: Q01DX009 (ip), vehicle: Klucel (hydroxypropylcellulose) (HPC)): 96 % of control
T/C (dose: 10.0 mg/kg/injection, schedule: Q01DX009 (ip), vehicle: Klucel (hydroxypropylcellulose) (HPC)): 100 % of control
T/C (dose: 20.0 mg/kg/injection, schedule: Q01DX009 (ip), vehicle: Klucel (hydroxypropylcellulose) (HPC)): 100 % of control

CCCCCCCCCCCC(=O)CCC
T/C [2]: 93 % of control
T/C [3]: 91 % of control
T/C [11]: 90 % of control
